Results reported in patent publication US7223759B2, “Antibacterial 3,5-diaminopiperidine-substituted aromatic and heteroaromatic compounds” (Anadys Pharmaceuticals, Inc., priority 2003, dated 2007).
Like-named read-outs stand apart in the source and are kept apart here.

Tested on: Escherichia coli (ATCC25922) or Staphylococcus aureus (ATCC25923)
Assay: Antibacterial MIC, microdilution method in Mueller-Hinton medium
Type: cell-based
Details: Escherichia coli, 18 h, read-out: Potency (MIC)
Summary of the method: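 Two-fold serial dilutions from 64 to 0.5 μg/ml, in duplicate, by broth microdilution in Mueller-Hinton medium (NCCLS M7-A5). MIC taken as the lowest concentration preventing visible growth after 18 h at 35° C.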

[1] = MIC in E. coli or S. aureus, two-fold serial dilutions 64 to 0.5 μg/ml in duplicate, 18 hours of incubation at 35° C.

SMILES | MIC [µg/mL] | MIC [1] [µg/mL]
CC(=O)c1ccc(Nc2nc(N(CCN)CCN)nc(N3C[C@H](N)C[C@H](N)C3)n2)cc1 [1-{4-[4-[Bis-(2-amino-ethyl)-amino]-6-((3R,5S)-3,5-diamino-piperidin-1-yl)-[1,3,5]triazin-2-ylamino]-phenyl}-ethanone] | < 64 | –
N[C@@H]1C[C@H](N)CN(c2nc(Nc3ccc(C(=O)Nc4ccccc4F)c(O)c3)nc(N3C[C@H](N)C[C@H](N)C3)n2)C1 [N-[4-(2-fluoro-phenylcarbamoyl)-3-hydroxy-phenyl]-4,6-Bis-((3R,5S)-3,5-diamino-piperidin-1-yl)-[1,3,5]triazine-2-amine] | < 64 | –
N#CCCNS(=O)(=O)c1ccc(Cl)c(Nc2nc(N3C[C@H](N)C[C@H](N)C3)nc(N3C[C@H](N)C[C@H](N)C3)n2)c1 [N-[2-chloro-5-(2-cyano-ethylsulfamoyl)-phenyl]-4,6-Bis-((3R,5S)-3,5-diamino-piperidin-1-yl)-[1,3,5]triazine-2-amine] | > 64 | –
N[C@@H]1C[C@H](N)CN(c2nc(Nc3ccc(C(=O)Nc4ccc(SC(F)(F)F)cc4)c(O)c3)nc(N3C[C@H](N)C[C@H](N)C3)n2)C1 [N-[3-hydroxy-4-(4-trifluoromethylsulfanyl-phenylcarbamoyl)-phenyl]-4,6-Bis-((3R,5S)-3,5-diamino-piperidin-1-yl)-[1,3,5]triazine-2-amine] | < 64 | –
Cl.O=C(CCCCC1SCC2NC(=O)NC21)Nc1ccc(Nc2nc(N3CCCCC3)nc(N3CCCCC3)n2)cc1O [5-((S)-2-Oxo-hexahydro-thieno[3,4-d]imidazol-2-yl)-penanoicacid {4-[4-((3S,5S)-3-amino-5-azido-piperidin-1-yl)-6-((3S,5R)-3,5-diamino-piperidin-1-yl)-[1,3,5]triazin-2-ylamino]-2-hydroxy-phenyl}-amide] | – | > 64
N[C@@H]1CC(c2nc(NCc3ccco3)nc(N3C[C@H](N)C[C@H](N)C3)n2)C[C@H](N)C1 (stereo partly drawn) [N-furan-2-ylmethyl-44,6-Bis-((3R,5S)-3,5-diamino-piperidin-1-yl)-[1,3,5]triazine-2-amine] | – | > 64
N[C@@H]1C[C@H](N)CN(c2nc(Nc3ccc(NC(=O)c4cc(Br)ccc4O)c(O)c3)nc(N3C[C@H](N)C[C@H](N)C3)n2)C1 [N-[4-(5-bromo-2-hydroxy-benzoylamino)-3-hydroxy-phenyl]-4,6-Bis-((3R,5S)-3,5-diamino-piperidin-1-yl)-[1,3,5]triazine-2-amine] | < 16 | –
N[C@@H]1C[C@H](N)CN(c2nc(NNc3ccccc3)nc(N3C[C@H](N)C[C@H](N)C3)n2)C1 [N-(4,6-Bis-((3R,5S)-3,5-diamino-piperidin-1-yl)-[1,3,5]triazin-2-yl)-N′-Phenyl-hydrazine] | > 64 | –
Cc1cc(Nc2nc(N3C[C@H](N)C[C@H](N)C3)nc(N3C[C@H](N)C[C@H](N)C3)n2)ccc1NC(=O)c1cccc(O)c1O [N-[4-(2,3-dihydroxy-benzoylamino)-3-methyl-phenyl]-4,6-Bis-((3R,5S)-3,5-diamino-piperidin-1-yl)-[1,3,5]triazine-2-amine] | < 16 | –
NC[C@@H]1C[C@@H](O)CN1c1nc(Nc2ccc(C(=O)CC(=O)Nc3ccc(F)c(F)c3)cc2)nc(N2C[C@H](N)C[C@H](N)C2)n1 [3-{4-[4-((2S,4R)-2-Aminomethyl-4-hydroxy-pyrrolidin-1-yl)-6-((3R,5S)-3,5-diamino-piperidin-1-yl)-[1,3,5]triazin-2-ylamino]-phenyl}-N-(3,4-difluoro-phenyl)-3-oxo-propionamide] | < 64 | –
N#Cc1ccc(NC(=O)c2ccc(Nc3nc(N4C[C@H](N)C[C@H](N)C4)nc(N4C[C@H](N)C[C@H](N)C4)n3)cc2O)cc1 [N-[4-(4-cyano-phenylcarbamoyl)-3-hydroxy-phenyl]-4,6-Bis-((3R,5S)-3,5-diamino-piperidin-1-yl)-[1,3,5]triazine-2-amine] | < 64 | –
Cc1ccc(C(=O)Nc2ccc(Nc3nc(N4C[C@H](N)C[C@H](N)C4)nc(N4C[C@H](N)C[C@H](N)C4)n3)cc2O)cc1 [N-[3-hydroxy-4-(4-methyl-benzoylamino)-phenyl]-4,6-Bis-((3R,5S)-3,5-diamino-piperidin-1-yl)-[1,3,5]triazine-2-amine] | < 16 | –
N[C@@H]1C[C@H](N)CN(c2nc(Nc3ccc(C(=O)Nc4cccc(Cl)c4)c(O)c3)nc(N3C[C@H](N)C[C@H](N)C3)n2)C1 [N-[4-(3-chloro-phenylcarbamoyl)-3-hydroxy-phenyl]-4,6-Bis-((3R,5S)-3,5-diamino-piperidin-1-yl)-[1,3,5]triazine-2-amine] | < 16 | –
N[C@@H]1C[C@H](N)CN(c2nc(Nc3ccc(C(=O)NCc4ccc5c(c4)OCO5)c(O)c3)nc(N3C[C@H](N)C[C@H](N)C3)n2)C1 [N-{4-[(benzo[1,3]dioxol-5-ylmethyl)-carbamoyl]-3-hydroxy-phenyl}-4,6-Bis-((3R,5S)-3,5-diamino-piperidin-1-yl)-[1,3,5]triazine-2-amine] | < 64 | –
NCCNc1nc(Nc2ccc(NC(=O)c3ccc4ccccc4c3O)cc2)nc(N2C[C@H](N)C[C@H](N)C2)n1 [1-Hydroxy-naphthalene-2-carboxylicacid {4-[4-(2-amino-ethylamino)-6-((3R,5S)-3,5-diamino-piperidin-1-yl)-[1,3,5]triazin-2-ylamino]-phenyl}-amide] | < 16 | –
N[C@@H]1C[C@H](N)CN(c2nc(Nc3ccc(NC(=O)c4ccc(N5Cc6ccccc6C5)cc4O)cc3)nc(N3C[C@H](N)C[C@H](N)C3)n2)C1 [N-{4-[4-(1,3-dihydro-isoindol-2-yl)-2-hydroxy-benzoylamino]-phenyl}-4,6-Bis-((3R,5S)-3,5-diamino-piperidin-1-yl)-[1,3,5]triazine-2-amine] | – | < 16
N[C@@H]1C[C@H](N)CN(c2nc(Nc3ccc(NC(=O)c4ccc(Cl)cc4O)cc3)nc(N3C[C@H](N)C[C@H](N)C3)n2)C1 [N-[4-(4-chloro-2-hydroxy-benzoylamino)-phenyl]-4,6-Bis-((3R,5S)-3,5-diamino-piperidin-1-yl)-[1,3,5]triazine-2-amine] | < 16 | –
COc1ccc(-c2ccccc2)cc1Nc1nc(N2C[C@H](N)C[C@H](N)C2)nc(N2C[C@H](N)C[C@H](N)C2)n1 [N-(4-methoxy-biphenyl-3-yl)-4,6-Bis-((3R,5S)-3,5-0diamino-piperidin-1-yl)-[1,3,5]triazine-2-amine] | – | < 64
N[C@@H]1C[C@H](N)CN(c2nc(Nc3ccc(NC(=O)c4ccc(C(F)(F)F)nc4O)cc3)nc(N3C[C@H](N)C[C@H](N)C3)n2)C1 [N-{4-[(2-hydroxy-6-trifluoromethyl-pyridine-3-carbonyl)-amino]-phenyl}-4,6-Bis-((3R,5S)-3,5-diamino-piperidin-1-yl)-[1,3,5]triazine-2-amine] | < 16 | –
Cl.O=C(CC(=O)c1ccc(Nc2nc(N3CCCCC3)nc(N3CCCCC3)n2)cc1)Nc1cccc(Br)c1 [N-{4-[2-(3-bromo-phenylcarbamoyl)-acetyl]-phenyl}-4,6-Biss-((3R,5S)-3,5-diamino-piperidin-1-yl)-[1,3,5]triazine-2-amine] | – | < 16
N[C@@H]1C[C@H](N)CN(c2nc(Nc3ccc(NC(=O)c4ccc(C(F)(F)F)nc4O)c(O)c3)nc(N3C[C@H](N)C[C@H](N)C3)n2)C1 [N-{3-hydroxy-4-[(2-hydroxy-6-trifluoromethyl-pyridine-3-carbonyl)-amino]-phenyl}-4,6-Bis-((3R,5S)-3,5-diamino-piperidin-1-yl)-[1,3,5]triazine-2-amine] | < 64 | –
COc1ccc(O)c(C(=O)Nc2ccc(Nc3nc(N4C[C@H](N)C[C@H](N)C4)nc(N4C[C@H](N)C[C@H](N)C4)n3)cc2)c1 [N-[4-(2-hydroxy-5-methoxy-benzoylamino)-phenyl]-4,6-Bis-((3R,5S)-3,5-diamino-piperidin-1-yl)-[1,3,5]triazine-2-amine] | < 64 | –
Cc1ccc(C(=O)Nc2ccc(Nc3nc(N4C[C@H](N)C[C@H](N)C4)nc(N4CC[C@H](O)[C@@H]4CN)n3)cc2O)cc1 [N-{4-[4-((2S,3S)-2-Aminomethyl-3-hydroxy-pyrrolidin-1-yl)-6-((3R,5S)-3,5-diamino-piperidin-1-yl)-[1,3,5]triazin-2-ylamino]-2-hydroxy-phenyl}-4-methyl-benzamide] | < 16 | –
Cc1ccc(C(=O)Nc2ccc(Nc3nc(N4C[C@H](N)C[C@H](N)C4)nc(N4C[C@@H](N)C[C@H]4CN)n3)cc2O)cc1 [N-{4-[4-((2S,4S)-4-Amino-2-aminomethyl-pyrrolidin-1-yl)-6-((3R,5S)-3,5-diamino-piperidin-1-yl)-[1,3,5]triazin-2-ylamino]-2-hydroxy-phenyl}-4-methyl-benzamide] | < 64 | –
CC(=O)N1CCN(c2nc(Nc3ccc(S(=O)(=O)Nc4ccc5cn[nH]c5c4)cc3)nc(N3C[C@H](N)C[C@H](N)C3)n2)CC1 [4-[4-(4-Acetyl-piperazin-1-yl)-6-((3R,5S)-3,5-diamino-piperidin-1-yl)-[1,3,5]triazin-2-ylamino]-N-(1H-indazol-6-yl)-benzenesulfonamide] | – | > 64
Cc1cccc(C(=O)Nc2ccc(Nc3nc(N4C[C@H](N)C[C@H](N)C4)nc(N4C[C@H](N)C[C@H](N)C4)n3)cc2O)c1O [N-[3-hydroxy-4-(2-hydroxy-3-methyl-benzoylamino)-phenyl]-4,6-Bis-((3R,5S)-3,5-diamino-piperidin-1-yl)-[1,3,5]triazine-2-amine] | < 16 | –
N[C@@H]1C[C@H](N)CN(c2nc(Nc3ccc(NC(=O)c4ccc5ccccc5c4O)cc3)nc(N3C[C@@H](O)[C@@H](O)C3)n2)C1 [1-Hydroxy-naphthalene-2-carboxylic acid {4-[4-((3S,5R)-3,5-diamino-piperidin-1-yl)-6-((3R,4S)-3,4-dihydroxy-pyrrolidin-1-yl)-[1,3,5]triazin-2-ylamino]-phenyl}-amide] | < 64 | –
CCCCCCCCCC(=O)Nc1ccc(S(=O)(=O)Nc2ccc(Nc3nc(N4C[C@H](N)C[C@H](N)C4)nc(N4C[C@H](N)C[C@H](N)C4)n3)cc2O)cc1 [N-[4-(4-decanoylamino-benzenesulfonylamino)-3-hydroxy-phenyl]-4,6-Bis-((3R,5S)-3,5-diamino-piperidin-1-yl)-[1,3,5]triazine-2-amine] | < 16 | –
